One series addresses T1, human PTP1B (Homo sapiens, UniProt P18031).
T1 construct: purchased Sigma
T1 sequence (P18031 1-435): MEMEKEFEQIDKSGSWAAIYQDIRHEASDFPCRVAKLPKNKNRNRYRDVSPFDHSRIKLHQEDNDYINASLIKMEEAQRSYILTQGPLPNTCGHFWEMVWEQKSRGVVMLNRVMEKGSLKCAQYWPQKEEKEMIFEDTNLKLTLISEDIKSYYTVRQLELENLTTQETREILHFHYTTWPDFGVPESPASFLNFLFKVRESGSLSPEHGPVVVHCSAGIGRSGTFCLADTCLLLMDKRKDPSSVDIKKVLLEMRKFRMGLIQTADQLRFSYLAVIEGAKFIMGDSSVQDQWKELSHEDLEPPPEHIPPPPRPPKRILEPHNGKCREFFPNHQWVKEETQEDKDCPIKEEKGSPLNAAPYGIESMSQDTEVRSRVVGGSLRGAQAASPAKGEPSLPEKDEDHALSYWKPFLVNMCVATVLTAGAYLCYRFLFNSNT
Kind of series: PTP1B inhibition assay (pNPP substrate, UV absorption). In kind it is biochemical. Particulars: for inhibition at 10 µM: PTP1B inhibition at 10 μM, performed in triplicate. As to the method: The inhibitory assay was performed using human PTP1B (purchased from Sigma) and p-nitrophenylphosphate (pNPP) as substrate by UV absorption. 400 nmol pNPP were dissolved in H2O and 48 μL of the solution was added to a 100 μL reaction. The indicated amount of synthetic compounds was diluted in DMSO at a concentration of 5 mM. The PTP1B was diluted in pH 7.2 buffer contained 50 mM HEPES, 3 mM dithiothreitol, 2 mM EDTA and 100 mM NaCl. About 50 μL PTP1B dilution was added, and the mixture incubated at 37 °C for 30 min. 1N NaOH was added to terminate the reaction. UV–Vis absorption was detected at 410 nm using a Tecan Infinite M1000 plate reader.

The next series deals with PTP1B. On the set-up: method as in PMID 20964318. As to conditions: cited from earlier work.
The next series concerns NIDDM mice. In kind it is in vivo. Particulars: for Antihyperglycaemic effect (plasma glucose): male Kunming mice, 100 mg/kg intraperitoneally, glucose at 0-4 h, n = 8. As to the method:
The antihyperglycaemic effect of the compounds 15, 25 and C10a were evaluated on non-insulin dependent diabetes mellitus (NIDDM) mice. Nicotinamide and streptozotocin were administrated intraperitoneally to induce hyperglycaemia and the plasma glucose of mice raised over 4.5 mmol/L[45].
Figure 5. The antihyperglycaemic effect in NIDDM mice (n = 8). […] M group: NIDDM mice were treated with saline alone. Y group: NIDDM mice were treated with rosiglitazone.
During the experiment, the male Kunming mice with 25–30 g body weight were fasted but received water prior to induction of diabetes. 110 mg/kg of nicotinamide and 65 mg/kg of streptozotocin (Macklin in Biochemical Technology Co., Ltd., Shanghai, China) were dissolved in pH 4.5 citrate buffer and intraperitoneally administrated to induce NIDDM mice model. The mice were intraperitoneally administered with a compound or rosiglitazone (100 mg/kg) dissolved in saline containing 1% DMSO and 10% Tween 80. Hyperglycaemia was confirmed by a plasma glucose increase of more than 4.5 mmol/L measured by a blood glucose metre (Sinocare GA-3, Changsha, China). Glucose concentrations from the tail of the mice were measured at 0, 0.5, 1, 2, 3 and 4 h by the blood glucose metre. Calculate the percentage of blood glucose by using the following formula: variation of glycaemia% = (AX − A0)/A0 × 100% (AX: blood glucose at selected time; A0: initial blood glucose).

In the next series the test system is HepG2 cells. Kind of series: Cell viability in the MTT assay. In kind it is cell-based, human. Particulars: 40 μM compound, 24 h. As to the method:
Cell viability in the MTT assay
The toxicities of the compounds were evaluated by (3-(4, 5-dimethylthiazolyl-2)-2, 5-diphenyltetrazolium bromide) test. HepG2 cells were routinely grown in Dulbecco's Modified Eagle Medium (DMEM) supplemented with 10% (v/v) fetal bovine serum, streptomycin ([…]), and penicillin (100U/mL), in a humidified atmosphere of 95% air, 5% CO2 at 37°C. HepG2 cells were planked in a 96 well plate with a concentration of 1×10^4 cells/well and cultured in 37°C and 5%CO2 for 24 h. Then HepG2 cells were treated with 40 μM of the synthetic compound. HepG2 cells untreated were used as control. HepG2 cells were cultured in 37℃ and 5%CO2 for 24 h, the old medium was carefully removed and were cultured for another 4 h in MTT (0.5%) containing DMEM, then the medium was carefully removed. 150 µL/well dimethyl sulfoxide was added and oscillated gently to make crystal dissolved. The absorbance at 560 nm was measured using a microplate reader. The cell […]
Fig. S1. Cell viability in the MTT assay.
(1 picture or pasted object on this page, not shown here)
(In general: Tetrazolium assays rely on reduction of a dye to a coloured formazan, in cell work by metabolically active cells.)

Series [1] concerns insulin-resistant HepG2 cells. Kind of series: Glucose uptake / glucose consumption in insulin-resistant HepG2 cells. The format is cell-based, human. As to conditions: HepG2 induced with 1.5 × 10^−5 mmol insulin for 36 h; compound 40 μM or rosiglitazone 10 μM for 24 h; glucose oxidase method. As to the method: To assess the insulin sensitisation, the cellular effect of these compounds on insulin-resistant human hepatoma HepG2 cells was performed. The concentration of insulin and induction time were screened to induce insulin resistance in HepG2 cells according to the reported method[41]^,[42] with some modification. As shown in Figure 4(A), treatment with above 1 × 10^−5 mmol of insulin reduced glucose uptake, whereas treatment with 6 × 10^−6 mmol of insulin enhanced glucose uptake. […] As shown in Figure 4(B), insulin resistance was induced in HepG2 cells at 36 h, and rosiglitazone can decrease the insulin resistance. […]
Figure 4. […] After incubation, glucose content in the culture medium was measured by glucose oxidase method. […]
HepG2 cells were grown in DMEM with 10% foetal bovine serum, […] of streptomycin, and 100 U/mL of penicillin, in a humidified atmosphere of 5% CO2 at 37 °C. […] After cultivation, the glucose content was determined by the glucose oxidase method (the glucose analysis kit was purchased from Rongsheng Biopharmaceutical Co., Ltd., Shanghai, China). […] The absorbance was measured at 506 nm using a microplate reader (SpectraMax i3x, Molecular Devices). The residual glucose concentration is expressed as AX/A0 × 5.55 mmol/L (AX: OD value of sample; A0: OD value of glucose standard solution).

One may read the inhibition as the share of the control response that was lost under treatment. On to `CC(C)C1=CC2=CC[C@@H]3[C@](C)(CCC[C@@]3(C)C(=O)O)[C@H]2CC1` [Compound 1, abietic acid], for which the inhibition at 10 µM at human PTP1B was 35%.

Usually melting point stands for the temperature of the solid-liquid transition. With `CC(C)(O)c1ccc2c(c1)CC[C@H]1[C@](C)(C(=O)O)CCC[C@]21C` [Compound 3, 15-Hydroxydehydroabieta-18-oic acid], the melting point is 92 to 93 °C. Further, testing at 10 µM on human PTP1B gave an inhibition of 19%. The like results for `CCOC(=O)[C@]1(C)CCC[C@]2(C)c3ccc(C(C)(C)O)cc3CCC12` (stereo partly drawn) [Compound 4a, Ethyl 15-hydroxydehydroabietate] were, in that order, 51 to 52 °C and 4%. `CC(C)(O)c1ccc2c(c1)CCC1[C@](C)(CO)CCC[C@]21C` (stereo partly drawn) [Compound 5, 1-Hydroxylmethyl-15-hydroxydehydroabietate] yielded an inhibition at 10 µM against human PTP1B of 0%. The molecule `C[C@@]1(C(=O)O)CCC[C@]2(C)c3ccc(O)cc3CCC12` (stereo partly drawn) [Compound 7, 13-hydroxy-8,11,13-podocarpatriene-1-carboxylic acid] yielded a melting point of 101 to 102 °C. Besides, testing at 10 µM against human PTP1B gave an inhibition of 1%. For the molecule `CC(C)C1=CC2=CCC3C(C)(CO)CCCC3(C)C2CC1` (stereo not drawn) [Compound 9], testing at 10 µM against human PTP1B gave an inhibition of 3%. Consider `Cc1ccc(S(=O)(=O)OCC2(C)CCCC3(C)C4CCC(C(C)C)=CC4=CCC23)cc1` (stereo not drawn) [Compound 10], for which the melting point fell in the range of 67 to 68 °C. The molecule also had an inhibition at 10 µM against human PTP1B of 2%. As to `CC(C)C1=CC2=CCC3C(C)(C)CCCC3(C)C2CC1` (stereo not drawn) [Compound 11], on human PTP1B, testing at 10 µM gave an inhibition of 0%.

Turning to `CC(C)(O)c1ccc2c(c1)CCC1C(C)(C)CCCC21C` (stereo not drawn) [Compound 13, 15-Hydroxydehydroabietane], the inhibition at 10 µM against human PTP1B worked out at 22%.

Consider `CC1(C)CCCC2(C)c3ccc(O)cc3CCC12` (stereo not drawn) [Compound 14, 13-Hydroxy-8,11,13-podocarpatriene], for which the melting point was 145 to 146 °C. The molecule further registered an inhibition at 10 µM at human PTP1B of 15%. In turn, `C[C@@]1(C(=O)O)CCC[C@]2(C)c3ccc(OCCOC(=O)c4ccccc4C(=O)O)cc3CCC12` (stereo partly drawn) [Compound 15] yielded a melting point of 72 to 73 °C. Same read-out and setting: in the case of `C[C@@]1(C(=O)O)CCC[C@]2(C)c3ccc(OCCOC(=O)c4ccccc4)cc3CCC12` (stereo partly drawn) [Compound 25] it was 138 to 139 °C; in that of `C[C@@]1(C(=O)O)CCC[C@]2(C)c3ccc(OCCOC(=O)c4ccccc4N)cc3CCC12` (stereo partly drawn) [Compound 28], 126 to 127 °C. Still for that read-out and setting: the value for `C[C@@]1(C(=O)O)CCC[C@]2(C)c3ccc(OCCOC(=O)c4ccc5cc(C(=O)O)ccc5c4)cc3CCC12` (stereo partly drawn) [Compound 34] was 189 to 190 °C. For the molecule `CC1(C)CCC2(COC(=O)c3ccccc3C(=O)O)CCC3(C)C(=CCC4C5(C)CCC(=O)C(C)(C)C5CCC43C)C2C1` (stereo not drawn) [Compound C10a], the IC50 with PTP1B (previous work, read-out: PTP1B inhibition IC50) was 3.12 µM; on human PTP1B (values from the text, quantity type not printed there (Table 2 is an image), read-out: PTP1B enzymatic inhibitory activities), 3.1 µM. In addition, the “PTP1B inhibition, fold more than the parent compound OA” value in the series with PTP1B (versus OA) is listed as 7.6 fold. In addition, the “Antihyperglycaemic effect (plasma glucose)” value with NIDDM mice is on record as “showed the antihyperglycaemic effect”. For the same molecule, in the series on NIDDM mice (mouse, in vivo, ip), the “Acute toxicity observations in treated mice” value was “hydroabdomen, thrombus and tail necrosis”. Besides, in the series with HepG2 cells, the Cytotoxicity entry is “considerable cytotoxicity and High”. In the case of `CN(CCOc1ccc(CC2SC(=O)NC2=O)cc1)c1ccccn1` (stereo not drawn) [rosiglitazone], the “Effect on glucose consumption / insulin-stimulated glucose uptake” value in series [1] is “significantly decrease the insulin resistance and improve the glucose uptake”. In the series with NIDDM mice, the “Antihyperglycaemic effect (plasma glucose)” value is listed as “significant antihyperglycaemic effect after 1 h”.

Source of the values: publication PMC6882489, “Design and synthesis of tricyclic terpenoid derivatives as novel PTP1B inhibitors with improved pharmacological property and in vivo antihyperglycaemic efficacy” (Journal of Enzyme Inhibition and Medicinal Chemistry, 2019).
